In patent US5883076A, “Systemin” (Washington State University Research Foundation, Inc., priority 1994, dated 1999):
Where no end group is shown, it is not given here.

What was measured:
[1] = test system: proteinase Inhibitor I and II; assay: Proteinase inhibitor inducing activity supplied through cut stems/petioles of young tomato plants, radial immunodiffusion of leaf juice; type: in vivo, tomato (Lycopersicon esculentum)
Description: A search was initiated for systemic signals inducing proteinase Inhibitor I and II genes in tomato leaf extracts. […] The polypeptide was purified using high-performance liquid chromatography (HPLC, see Materials and Methods, below). Inducing activity of the polypeptide was assayed by cutting the petioles of young plants and introducing eluted fractions from column separations into the cut over a period of 30 min. The plants were subsequently transferred to small vials of water, incubated under constant light for 24 hours as described (C. A. Ryan, Plant Physiol. 54, 328, 1974), and the amount of proteinase Inhibitor I and II in the leaf juice was quantified by radial immunodiffusion in agar gels that contained rabbit antiserum to Inhibitor I or Inhibitor II (C. A. Ryan, Anal. Biochem. 19, 434, 1967; R. Trautman, K. Cowan, G. Wagner, Immunochemistry 8, 901, 1971). Over 30,000 young tomato plants were assayed over a 2.5 year period.
The leaves were incubated in solutions containing the synthetic systemin polypeptide and the proteinase inhibitors were assayed as described above in Example 1. Each data point was obtained from assays of the leaves of 36 tomato plants.

[2] = Loss of inducing activity of purified systemin after acid hydrolysis or proteolytic enzymes; type: physicochemical
[3] = in vivo
[4] = in vivo; cited from earlier work
[5] = supplied to cut stems of young tomato plants

Question: With `CSCC[C@H](NC(=O)[C@H](CCCCN)NC(=O)[C@@H]1CCCN1C(=O)[C@@H]1CCCN1C(=O)[C@H](CC(=O)O)NC(=O)[C@H](CCCNC(=N)N)NC(=O)[C@H](CCCCN)NC(=O)[C@H](CO)NC(=O)[C@@H]1CCCN1C(=O)[C@@H]1CCCN1C(=O)[C@H](CCCCN)NC(=O)[C@H](CO)NC(=O)[C@H](CCC(N)=O)NC(=O)[C@@H](NC(=O)[C@H](C)N)C(C)C)C(=O)N[C@@H](CCC(N)=O)C(=O)N[C@H](C(=O)N[C@@H](CC(=O)O)C(=O)O)[C@@H](C)O` [systemin, NH3 -AVQSKPPSKRDPPKMQTD-COO-] as the compound, how does the “number of tomato plants in which the sample could induce maximal accumulation of proteinase inhibitors” value ([1]; step 6 sample, approximately 1 μg of protein) read?
Answer: 40,000 tomato plants

Question: What about the “activity after acid hydrolysis” value [2] of the same compound?
Answer: total loss of activity

Question: And the “activity in the presence of trypsin and other proteolytic enzymes” value [2]?
Answer: partial loss of activity

Question: Which results are given for “NH3 -AVQSKPPSKRDPPKMQTD-COO- [synthetic systemin polypeptide]”?
Answer: activity on a molar basis relative to previously reported PIIF oligogalactunonide inducers ([1]; in vivo): about 10^5 times; amount of polypeptide required to produce half maximal accumulation of Inhibitors I and II [1, 5]: About 40 fmol per plant; bioactivity for inducing synthesis and accumulation of Inhibitor I and II compared with native systemin [1, 5]: as effective as the native systemin polypeptide

Question: With “^14 C-labeled polypeptide: synthetic systemin with [14C] Ala added to residues 2 through 18 (AVQSKPPSKRDPPKMQTD; also: 14C label, positions not clearly stated; UniProt P27058 179-196, looked up)” as the compound, how does the “time for radioactivity to move throughout the leaf” value [3] read?
Answer: ≤ 30 min

Question: And the “time to identification of radiolabeled systemin in phloem exudate by HPLC” value [3]?
Answer: 1 to 2 h

Question: With α-1, 4-oligogalacturonides as the compound, how does the “mobility from wound sites” value [4] read?
Answer: not found to be mobile
